Experimental data from US11091479B2, “Triazolopyridin-3-ones or their salts and pharmaceutical compositions comprising the same” (YUHAN CORPORATION, priority 2018, dated 2021).
Counter-ions that a name gives are not always drawn.

Tests used:
Format in all cases: biochemical
[1] = molecular target: T1, recombinant human MAO-B (monoamine oxidase-B) (Homo sapiens, UniProt P27338); assay: Activity on recombinant human MAO-B, method similar to VAP-1 assay, 1 mM benzylamine substrate; conditions: read-out: Inhibitory Activity (IC50, nM) MAO-B
T1 construct: purchased Sigma-Aldrich
T1 sequence (P27338 1-520): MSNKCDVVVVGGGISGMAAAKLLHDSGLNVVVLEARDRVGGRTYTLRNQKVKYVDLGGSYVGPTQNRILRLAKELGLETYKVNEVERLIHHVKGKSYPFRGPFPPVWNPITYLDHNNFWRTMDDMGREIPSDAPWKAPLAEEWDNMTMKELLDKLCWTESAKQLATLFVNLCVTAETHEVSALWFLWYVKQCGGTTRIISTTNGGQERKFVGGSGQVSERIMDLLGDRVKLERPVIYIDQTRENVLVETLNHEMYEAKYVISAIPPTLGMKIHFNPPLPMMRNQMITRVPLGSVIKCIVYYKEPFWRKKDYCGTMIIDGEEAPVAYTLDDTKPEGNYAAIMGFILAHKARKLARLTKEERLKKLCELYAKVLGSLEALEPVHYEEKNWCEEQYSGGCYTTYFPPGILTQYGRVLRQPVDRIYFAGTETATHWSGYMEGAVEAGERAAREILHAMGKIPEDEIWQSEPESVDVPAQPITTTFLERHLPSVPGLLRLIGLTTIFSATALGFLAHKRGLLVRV
Procedure: (§1) The compounds according to the present technology were evaluated in terms of activity on recombinant human VAP-1 (R&D systems) by measuring the level of hydrogen peroxide in horseradish peroxidase (HRP)-coupled reaction using Amplex Red Hydrogen Peroxide Assay Kit (Molecular Probes, Invitrogen, USA). The experiment was carried out at room temperature using benzylamine as a substrate. In the HRP-coupled reaction, hydrogen peroxide oxidation of 10-acetyl-3,7-dihydroxyphenoxazine (Amplex Red reagent) produces resorufin, which is a highly fluorescent compound. Briefly, the test compound was dissolved in dimethyl sulfoxide (DMSO) at a concentration of 20 mM. The dose-response assessment was made by 1:3 serial dilution in DMSO, thereby creating a 8 point curve. The concentration of the upper part was controlled according to the efficacy of the compounds, followed by dilution with a reaction buffer solution to obtain a final DMSO concentration of less than 1%. To each well of a 96 black well plate, human VAP-1 purified in 50 mM sodium phosphate buffer solution (pH7.4) was added. The test compounds dissolved in DMSO were incubated with the human VAP-1 enzymes at 37° C. for 30 minutes. After 30-minute incubation, each well was added with a reaction mixture containing 200 uM Amplex Red reagent prepared from 50 mM sodium phosphate buffer solution (pH 7.4), 1 mM benzylamine, and 1 U/mL HRP. Fluorescence intensity was measured at several time points during 1-2 hours using a microplate reader (Flexstation3, Molecular Devices) under the wavelength condition exciting at 544 nm and reading the emission at 590 nm. The inhibitory effect of the compounds was measured as a decrease (%) in the signal rate as compared to the control group without any inhibitor (only diluted DMSO). Data was fixed to a logistic model with four variables and IC50 value was calculated using GraphPad Prism program.
(§2) In addition, the compounds according to the present technology were evaluated in terms of activity on a recombinant human MAO-A (monoamine oxidase-A, Sigma-Aldrich) and a recombinant human MAO-B(monoamine oxidase-B, Sigma-Aldrich) by using as substrates, 0.5 mM tyramine and 1 mM benzylamine, respectively, with a method similar to the activity evaluation method for recombinant human VAP-1. The compounds according to the present technology were also evaluated in terms of activity on a recombinant human DAO (diamine oxidase, R&D systems) by using as a substrate 1 mM putrescine with a method similar to the activity evaluation method for recombinant human VAP-1.

[2] = molecular target: T2, recombinant human DAO (diamine oxidase) (Homo sapiens, UniProt P19801); assay: Activity on recombinant human DAO, method similar to VAP-1 assay, 1 mM putrescine substrate; conditions: read-out: Inhibitory Activity (IC50, nM) DAO
T2 construct: purchased R&D systems
T2 sequence (P19801 20-751): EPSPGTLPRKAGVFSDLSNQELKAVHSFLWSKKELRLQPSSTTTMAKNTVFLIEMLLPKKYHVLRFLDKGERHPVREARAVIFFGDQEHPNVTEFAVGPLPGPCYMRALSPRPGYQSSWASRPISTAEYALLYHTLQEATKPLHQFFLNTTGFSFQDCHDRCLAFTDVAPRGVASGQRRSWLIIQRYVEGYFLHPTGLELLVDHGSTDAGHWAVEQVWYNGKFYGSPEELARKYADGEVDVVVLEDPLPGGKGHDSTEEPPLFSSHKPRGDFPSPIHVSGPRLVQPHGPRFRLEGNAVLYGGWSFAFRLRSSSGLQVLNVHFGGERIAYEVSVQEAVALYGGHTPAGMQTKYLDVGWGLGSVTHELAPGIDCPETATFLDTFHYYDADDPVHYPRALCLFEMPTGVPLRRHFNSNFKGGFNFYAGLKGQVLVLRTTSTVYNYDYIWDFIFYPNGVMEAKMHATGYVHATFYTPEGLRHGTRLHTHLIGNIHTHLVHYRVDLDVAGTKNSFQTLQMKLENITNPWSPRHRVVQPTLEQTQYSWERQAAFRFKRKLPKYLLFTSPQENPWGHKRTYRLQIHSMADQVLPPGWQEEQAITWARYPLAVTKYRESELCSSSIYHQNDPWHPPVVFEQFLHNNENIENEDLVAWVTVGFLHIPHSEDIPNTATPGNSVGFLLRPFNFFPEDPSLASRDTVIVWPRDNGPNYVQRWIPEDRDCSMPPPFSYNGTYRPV
Procedure: as §1, §2

[3] = molecular target: T3, recombinant human MAO-A (monoamine oxidase-A) (Homo sapiens, UniProt P21397); assay: Activity on recombinant human MAO-A, method similar to VAP-1 assay, 0.5 mM tyramine substrate; conditions: read-out: Inhibitory Activity (IC50, nM) MAO-A
T3 construct: purchased Sigma-Aldrich
T3 sequence (P21397 1-527): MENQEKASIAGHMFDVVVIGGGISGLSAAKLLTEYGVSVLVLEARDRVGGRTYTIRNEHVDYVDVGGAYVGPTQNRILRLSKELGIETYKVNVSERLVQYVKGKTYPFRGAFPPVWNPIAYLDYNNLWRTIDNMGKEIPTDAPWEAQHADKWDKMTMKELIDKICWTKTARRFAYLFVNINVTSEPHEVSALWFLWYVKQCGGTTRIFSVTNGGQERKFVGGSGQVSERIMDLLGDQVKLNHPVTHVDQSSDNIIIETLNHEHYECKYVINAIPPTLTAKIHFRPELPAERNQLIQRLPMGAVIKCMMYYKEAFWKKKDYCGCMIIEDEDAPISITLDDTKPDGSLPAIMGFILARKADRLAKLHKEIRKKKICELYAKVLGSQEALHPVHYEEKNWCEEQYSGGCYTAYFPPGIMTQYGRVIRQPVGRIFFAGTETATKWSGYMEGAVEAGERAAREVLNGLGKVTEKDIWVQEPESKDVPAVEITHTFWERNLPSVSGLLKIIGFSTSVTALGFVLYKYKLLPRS
Procedure: as §1, §2

[4] = molecular target: T4, recombinant human VAP-1 (Homo sapiens, UniProt Q16853); assay: Activity on recombinant human VAP-1, HRP-coupled Amplex Red hydrogen peroxide assay, benzylamine substrate; conditions: 30 min incubation at 37° C., 1 mM benzylamine, read-out: Inhibitory Activity (IC50, nM) human VAP-1
T4 construct: purchased R&D systems
T4 sequence (Q16853 1-763): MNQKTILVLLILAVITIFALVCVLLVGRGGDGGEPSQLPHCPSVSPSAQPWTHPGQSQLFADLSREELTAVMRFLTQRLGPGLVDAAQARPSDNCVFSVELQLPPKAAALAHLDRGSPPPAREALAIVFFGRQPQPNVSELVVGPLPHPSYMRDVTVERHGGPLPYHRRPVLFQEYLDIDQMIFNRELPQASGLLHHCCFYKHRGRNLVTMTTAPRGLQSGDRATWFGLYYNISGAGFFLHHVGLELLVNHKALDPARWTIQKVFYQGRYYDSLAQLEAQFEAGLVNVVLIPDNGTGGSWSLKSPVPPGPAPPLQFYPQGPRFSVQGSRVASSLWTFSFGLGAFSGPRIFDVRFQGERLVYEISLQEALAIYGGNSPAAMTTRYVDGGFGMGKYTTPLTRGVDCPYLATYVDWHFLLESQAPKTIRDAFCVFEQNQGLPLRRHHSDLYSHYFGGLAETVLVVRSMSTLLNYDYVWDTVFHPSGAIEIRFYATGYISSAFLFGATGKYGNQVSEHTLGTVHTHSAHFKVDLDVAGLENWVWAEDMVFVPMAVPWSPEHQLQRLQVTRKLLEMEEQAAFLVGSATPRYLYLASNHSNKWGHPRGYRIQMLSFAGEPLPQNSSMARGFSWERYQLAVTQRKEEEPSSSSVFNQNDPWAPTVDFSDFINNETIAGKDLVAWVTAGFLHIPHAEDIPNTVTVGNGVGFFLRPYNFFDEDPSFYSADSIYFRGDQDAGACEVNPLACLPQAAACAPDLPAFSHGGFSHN
Procedure: as §1

Row | Structure (SMILES) | IC50 [1] [nM] | IC50 [2] [nM] | IC50 [3] [nM] | IC50 [4] [nM]
1 | NCC(Cn1nc2cccc(Br)n2c1=O)=C(F)F [Example 45, 2-[2-(aminomethyl)-3,3-difluoro-allyl]-5-bromo-[1,2,4]triazolo[4,3-a]pyridin-3-one trifluoroacetate] | > 100000 | 11000 | > 100000 | 24
2 | NCC(Cn1nc2cc(Br)ccn2c1=O)=C(F)F [Example 47, 2-[2-(aminomethyl)-3,3-difluoro-allyl]-7-bromo-[1,2,4]triazolo[4,3-a]pyridin-3-one trifluoroacetate] | > 100000 | 42000 | > 100000 | 7
3 | CN(C)Cc1ccccc1-c1ccn2c(=O)n(C/C(=C/F)CN)nc2c1 [Example 23, 2-[(2E)-2-(aminomethyl)-3-fluoroprop-2-en-1-yl]-7-2-[(dimethylamino)methyl]phenyl[1,2,4]triazolo[4,3-a]pyridin-3(2H)-one hydrochloride] | > 10000 | 37 | > 10000 | 7
4 | CC(=O)Nc1nc2cc(-c3ccc4nn(C/C(=C/F)CN)c(=O)n4c3)ccc2s1 [Example 15, N-[5-[2-[(2E)-2-(aminomethyl)-3-fluoroprop-2-en-1-yl]-3-oxo-2,3-dihydro[1,2,4]triazolo[4,3-a]pyridin-6-yl]-1,3-benzothiazol-2-yl]acetamide trifluoroacetate] | 597 | < 100 | > 100000 | 9.3

Stronger by IC50 [1], values ahead:

Row | IC50 [1] [nM] | IC50 [2] [nM] | IC50 [3] [nM] | IC50 [4] [nM] | Structure (SMILES)
5 | 52 | < 100 | 10200 | 4.5 | NC/C(=C\F)Cn1nc2ccc(-c3ccc4nonc4c3)cn2c1=O [Example 16, 2-[(2E)-2-(aminomethyl)-3-fluoroprop-2-en-1-yl]-6-(2,1,3-benzoxadiazol-5-yl)[1,2,4]triazolo[4,3-a]pyridin-3(2H)-one trifluoroacetate]
6 | 67 | 1.8 | 1450 | 0.6 | NC/C(=C\F)Cn1nc2cc(-c3ccc(-c4cnon4)cc3)ccn2c1=O [Example 27, 2-[(2E)-2-(aminomethyl)-3-fluoroprop-2-en-1-yl]-7-[4-(1,2,5-oxadiazol-3-yl)phenyl][1,2,4]triazolo[4,3-a]pyridin-3(2H)-one hydrochloride]
7 | 231 | < 100 | > 100000 | 3.6 | CS(=O)(=O)c1ccc(-c2ccc3nn(C/C(=C/F)CN)c(=O)n3c2)cc1 [Example 3, 2-[(2E)-2-(aminomethyl)-3-fluoroprop-2-en-1-yl]-6-[4-(methylsulfonyl)phenyl][1,2,4]triazolo[4,3-a]pyridin-3(2H)-one trifluoroacetate]
8 | 25 | 0.2 | > 100000 | 2.3 | NC/C(=C\F)Cn1nc2ccc(-c3ccc(-c4ccon4)cc3)cn2c1=O [Example 7, 2-[(2E)-2-(aminomethyl)-3-fluoroprop-2-en-1-yl]-6-[4-(1,2-oxazol-3-yl)phenyl][1,2,4]triazolo[4,3-a]pyridin-3(2H)-one hydrochloride]
9 | < 10 | 0.4 | 3500 | 0.2 | NC/C(=C\F)Cn1nc2cc(-c3ccc4nonc4c3)ccn2c1=O [Example 38, 2-[(2E)-2-(aminomethyl)-3-fluoroprop-2-en-1-yl]-7-(2,1,3-benzoxadiazol-5-yl)[1,2,4]triazolo[4,3-a]pyridin-3(2H)-one hydrochloride]
10 | 64 | < 100 | > 100000 | 6.6 | NC/C(=C\F)Cn1nc2ccc(-c3ccc(N4CCOCC4)nc3)cn2c1=O [Example 10, 2-[(2E)-2-(aminomethyl)-3-fluoroprop-2-en-1-yl]-6-[6-(morpholin-4-yl)pyridin-3-yl][1,2,4]triazolo[4,3-a]pyridin-3(2H)-one trifluoroacetate]
11 | 19 | 24 | > 100000 | 0.4 | CN(C)c1ccc(-c2ccn3c(=O)n(C/C(=C/F)CN)nc3c2)cn1 [Example 32, 2-[(2E)-2-(aminomethyl)-3-fluoroprop-2-en-1-yl]-7-[6-(dimethylamino)pyridin-3-yl][1,2,4]triazolo[4,3-a]pyridin-3(2H)-one hydrochloride]
